Measured values: patent US20230226079A1, “METHODS AND COMPOSITIONS FOR TREATMENT OF SOLID TUMORS” (Saint Louis University, priority 2022, published 2023)
≈ marks a conversion by molar mass, not a printed value.

Experiments:
[1] = test system: 4T1 (mouse) cells implanted into the mammary fat pad; test: Orthotopic syngeneic breast cancer mouse model (4T1); format: in vivo, Balb/c mice; settings: M-I 30 mg/mouse/day ip; pilot study
Experimental: FIG. 12 illustrates 4T1 cells tumor bearing mice were randomly divided into two groups mice (n=4). Starting day of treatment by M-I (red color) or vehicle (control-blue color) graph was marked by up arrow.
The Inventors further evaluated the efficacy of M-I in orthotopic breast cancer mouse models in a pilot study. Syngeneic breast cancer model using 4T1 (mouse) cells implanted into the mammary fat pad of Balb/c mice. Mice were divided into two groups. One group received M-I (30 mg/mouse/day) and the other group received vehicle as a control by ip.

MDA-MB-231 cells = test: Cell viability of MDA-MB-231 cells; format: cell-based; settings: Homo sapiens, 72h
Experimental: (§1) FIG. 8 illustrates 4T1 and MDA-MB-231 cells treated with M-I at indicated doses for 72h. The viability of control cells was arbitrarily set to 100%. Results shown are an average of three independent experiments. Data are represented as mean±SD.
(§2) The Inventors tested human MDA-MB-231 and mouse 4T1 cells in dose dependent manner (FIG. 8). […] The Inventors also tested other compounds in TNBC cell cytotoxicity assays, but these required much higher amounts (>[…]) even for ˜40% cell death.

4T1 cells = test: Cell viability of 4T1 cells; format: cell-based; settings: Mus musculus, 72h
Experimental: as §1, §2

Ca127 cells = test: Cytotoxicity assay (Cell Counting Kit-8) in Ca127 cells; format: cell-based; settings: 48 h, treated for 48 h; read-out: IC50 dose, Ca127 cells
Description: Normal oral keratinocytes (NOK) (kindly gifted by Dr. Karl Mugner, Tuffs University, Boston, MA, USA) were maintained in Keratinocyte SFM medium supplemented with EGF and bovine pituitary extract (GIBCO, Life Technologies, Berkeley, MO, USA) and 1% penicillin/ streptomycin. HNC cell line Ca127 was purchased from the ATCC. JHU029 (JHU-29) and JHU022 (JHU-22) cell lines were procured from the Johns Hopkins University (Baltimore, MD, USA). The Ca127 and JHU022 cells were maintained in Dulbecco's Modified Eagle Medium (DMEM), and JHU029 cells were in RPMI1640 (Sigma, St. Louis, Mo., USA) media supplemented with 10% FBS and 1% penicillin/ streptomycin (Sigma-Aldrich, St. Louis, Mo., USA) in a humidified CO2 incubator. The cell lines are routinely tested in the Inventors' laboratory to rule out mycoplasma contamination using a commercial Mycoplasma Detection kit (MycoAlert™, Lonza, Morrisville, N.C., USA). Ca127 cells are tongue origin and JHU022 and JHU029 cells are from larynx origin.
Bitter melon extract (BME) was prepared from the Chinese variety of young bitter melons (raw and green) as described previously (Rajamoorthi et al. (2013) PLoS ONE; 8, e78006). Briefly, BME was prepared by aqueous extraction from whole fruit without seeds using a household juicer at room temperature with subsequent centrifugation at 15000 g at 4 C for 30 min. BME was stored at −80 C for further analysis. […]

c-Met and c-Myc = test: Western blot of JHU029 tumor lysates; format: in vivo, nude mice; settings: JHU029 xenograft tumors
Experimental: Lysates from control, BME or M-I treated cells and tumors were prepared using 2 SDS sample buffer and subjected to western blot analysis using specific antibodies to c-Met (1:500, Cell Signaling Technology, CST, Denvers, Mass., USA,), phospho-STAT3 (pSTAT3-Tyr-705) (1:1000, CST), total STAT3 (1:1000, CST), c-Myc (1:1000, CST), surviving (1:500, Santa Cruz Biotechnology, SBT, Dallas, Tex., USA) and cyclin D1 (1: 500, SBT). HRP conjugated anti-mouse or anti-rabbit secondary antibodies were purchased from Bio-Rad (Hercules, Calif., USA). The blot was reprobed with HRP conjugated -actin antibody (1:5000; SBT) to compare protein load in each lane. Densitometry analysis was done using Image J software (NIH, Bethesda, Md., USA).
JHU029 or Ca127 cells (1.5 10^6) containing 40% Matrigel were injected subcutaneously into the flank of BALB/c athymic nude mice (7-8 weeks old). When the palpable tumor was developed (>60 mm3), mice were divided into three groups randomly, 5 mice in each group. The control group was without any treatment. The BME group received 30% (v/v) BME through drinking water. M-I group received 30 mg/kg dose of M-I once in day, every day. Body weight was monitored, and tumor size was measured using a slide caliper and volume was calculated using the formula 1/2 L X W2. After animal sacrifice tumors were dissected out and snap frozen in liquid nitrogen for further analysis. […]

For `CC(C)=CC(O)CC(C)[C@H]1CC[C@@]2(C)[C@@H]3[C@@H](O)C=C4[C@@H](CC[C@H](O)C4(C)C)[C@]3(C=O)CC[C@]12C` (stereo partly drawn) [M-I, (3S, 7S, 8S, 9R, 10R, 13R, 14S, 17R) 3,7-dihydroxy-17-(4-hydroxy-6-methylhept-5-en-2-yl)-4,4,13,14-tetramethyl-2,3,7,8,10,11, 12,15, 16,17-decahydro-1H-cyclopenta[a]phenanthrene-9-carbaldehyde], the “tumor volumes versus vehicle control” value [1] was “significantly reduced”, the IC50 (MDA-MB-231 cells) was 12 µg/mL (≈ 25.4 µM) and the IC50 (4T1 cells) was 5 µg/mL (≈ 10.6 µM). For the same molecule, the IC50 (Ca127 cells) was under 8 µg/mL and the “expression of c-Met and c-Myc in tumors versus untreated control” value (c-Met and c-Myc) was “significant reduction”.
